From publication PMC10188280 (Inorganic chemistry, 2022)

Experiments:
SK-OV-3 (Ovary) = test: MTT antiproliferative assay, 72 h; type: cell-based; conditions: read-out: IC50 values SK-OV-3 (Ovary), 72 h exposure, mean ± SDM, n = 3
A2780 (Ovary) = test: MTT antiproliferative assay, 72 h; type: cell-based; conditions: read-out: IC50 values A2780 (Ovary), 72 h exposure, mean ± SDM, n = 3
MDA-MB-231 (Breast) = test: MTT antiproliferative assay, 72 h; type: cell-based; conditions: read-out: IC50 values MDA-MB-231 (Breast), 72 h exposure, mean ± SDM, n = 3
Caco-2 (Colon) = test: MTT antiproliferative assay, 72 h; type: cell-based; conditions: read-out: IC50 values Caco-2 (Colon), 72 h exposure, mean ± SDM, n = 3
A2780 cells = test: Cell cycle analysis by flow cytometry; type: cell-based; conditions: 24 h, lower of two concentrations close to 24-h IC50
MCF-7 (Breast) = test: MTT antiproliferative assay, 72 h; type: cell-based; conditions: read-out: IC50 values MCF-7 (Breast), 72 h exposure, mean ± SDM, n = 3
HT-29 (Colon) = test: MTT antiproliferative assay, 72 h; type: cell-based; conditions: read-out: IC50 values HT-29 (Colon), 72 h exposure, mean ± SDM, n = 3
[1] = unsubstituted (lacking the N4 phenyl) compound; cited from earlier work

Row | Compound | IC50 (SK-OV-3 (Ovary)) | IC50 (A2780 (Ovary)) | IC50 (MDA-MB-231 (Breast)) | IC50 (Caco-2 (Colon)) | cell cycle distribution at the lower concentration (A2780 cells) | IC50 (MCF-7 (Breast)) | IC50 (HT-29 (Colon)) | pKa [1]
1 | CC(=O)N(O)CCCCCNC(=O)CCC(=O)N(O)CCCCCNC(=O)CCC(=O)N(O)CCCCCN [DFO] | 9.5 ± 0.5 µM | 1900 ± 100 nM | 4.58 ± 0.03 µM | 3.9 ± 0.5 µM | a larger fraction of cells was able to proceed to the S phase but remained unable to reach the G2 phase | 22.5 ± 0.3 µM | 2.3 ± 0.2 µM | –
2 | NC(=S)N/N=C/c1ccccc1O [salicylaldehyde thiosemicarbazone] | – | – | – | – | – | – | – | 8.8
3 | Oc1ccccc1C=NNC(=S)Nc1ccccc1 [STC1] | 2.3 ± 0.2 µM | 1900 ± 100 nM | 4.8 ± 0.2 µM | 7.3 ± 0.8 µM | – | 1.74 ± 0.04 µM | 9.5 ± 0.5 µM | –
